Reference: PubChem BioAssay (NCI)
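Following 48 hours of exposure in 96-well plates, responses at five concentrations were used to interpolate endpoints linearly. The concentration for full growth arrest is given as TGI.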

Tests used:
Assay in all cases: NCI tumour cell line growth inhibition, 48 h
[1] = system: OVCAR-5 ovarian
[2] = system: OVCAR-8 ovarian
[3] = system: LXFL 529 NSCLC
[4] = system: XF 498 CNS
[5] = system: MOLT-4 leukemia
[6] = system: ACHN renal
[7] = system: SNB-78 CNS
[8] = system: MALME-3M melanoma
[9] = system: DLD-1 colon
[10] = system: OVCAR-3 ovarian
[11] = system: COLO 205 colon
[12] = system: SNB-19 CNS
[13] = system: KM20L2 colon
[14] = system: HCT-15 colon
[15] = system: SF-268 CNS
[16] = system: K-562 leukemia
[17] = system: HOP-92 NSCLC
[18] = system: SK-MEL-2 melanoma
[19] = system: SK-MEL-5 melanoma
[20] = system: 786-0 renal
[21] = system: HOP-18 NSCLC
[22] = system: HL-60(TB) leukemia
[23] = system: HOP-62 NSCLC
[24] = system: IGROV1 ovarian
[25] = system: SK-MEL-28 melanoma
[26] = system: UACC-257 melanoma
[27] = system: HCT-116 colon
[28] = system: M19-MEL melanoma
[29] = system: M14 melanoma
[30] = system: SF-539 CNS
[31] = system: NCI-H522 lung
[32] = system: OVCAR-4 ovarian
[33] = system: SN12C renal
[34] = system: NCI-H226 lung
[35] = system: HCC-2998 colon
[36] = system: U251 CNS
[37] = system: NCI-H23 lung
[38] = system: A549 NSCLC
[39] = system: DMS 273 small cell lung
[40] = system: NCI-H460 lung
[41] = system: DMS 114 small cell lung
[42] = system: LOX IMVI melanoma
[43] = system: SNB-75 CNS
[44] = system: KM12 colon
[45] = system: A498 renal
[46] = system: CCRF-CEM leukemia
[47] = system: TK-10 renal
[48] = system: SK-OV-3 ovarian
[49] = system: EKVX NSCLC
[50] = system: UO-31 renal
[51] = system: SR leukemia
[52] = system: HT29 colon
[53] = system: SF-295 CNS
[54] = system: SW-620 colon
[55] = system: RXF 393 renal
[56] = system: RPMI-8226 leukemia
[57] = system: UACC-62 melanoma
[58] = system: RXF-631 renal
[59] = system: CAKI-1 renal

## COC(=O)/C=C/C1C2C3(CCC(C)C12C)OCCS3 (centres undefined)
[1]
  TGI: > 100 µM
[2]
  TGI: > 100 µM
[3]
  TGI: > 100 µM
[4]
  TGI: > 100 µM
[5]
  TGI: > 100 µM
[6]
  TGI: > 100 µM
[7]
  TGI: > 100 µM
[8]
  TGI: > 100 µM
[9]
  TGI: > 100 µM
[10]
  TGI: > 100 µM
[11]
  TGI: > 100 µM
[12]
  TGI: > 100 µM
[13]
  TGI: > 100 µM
[14]
  TGI: > 100 µM
[15]
  TGI: > 100 µM
[16]
  TGI: > 100 µM
[17]
  TGI: > 100 µM
[18]
  TGI: > 100 µM
[19]
  TGI: > 100 µM
[20]
  TGI: > 100 µM
[21]
  TGI: > 100 µM
[22]
  TGI: > 100 µM
[23]
  TGI: > 100 µM
[24]
  TGI: > 100 µM
[25]
  TGI: > 100 µM
[26]
  TGI: > 100 µM
[27]
  TGI: > 100 µM
[28]
  TGI: > 100 µM
[29]
  TGI: > 100 µM
[30]
  TGI: > 100 µM
[31]
  TGI: > 100 µM
[32]
  TGI: > 100 µM
[33]
  TGI: > 100 µM
[34]
  TGI: > 100 µM
[35]
  TGI: > 100 µM
[36]
  TGI: > 100 µM
[37]
  TGI: > 100 µM
[38]
  TGI: > 100 µM
[39]
  TGI: > 100 µM
[40]
  TGI: > 100 µM
[41]
  TGI: > 100 µM
[42]
  TGI: > 100 µM
[43]
  TGI: > 100 µM
[44]
  TGI: > 100 µM
[45]
  TGI: > 100 µM
[46]
  TGI: > 100 µM
[47]
  TGI: > 100 µM
[48]
  TGI: > 100 µM
[49]
  TGI: > 100 µM
[50]
  TGI: > 100 µM
[51]
  TGI: > 100 µM
[52]
  TGI: > 100 µM
[53]
  TGI: > 100 µM
[54]
  TGI: > 100 µM
[55]
  TGI: > 100 µM

## COc1ccc2c(CCNC(C)=O)c(C(C)=O)[nH]c2c1
[1]
  TGI: > 100 µM
[2]
  TGI: > 100 µM
[3]
  TGI: > 100 µM
[5]
  TGI: > 100 µM
[56]
  TGI: > 100 µM
[6]
  TGI: > 100 µM
[7]
  TGI: > 100 µM
[9]
  TGI: > 100 µM
[10]
  TGI: > 100 µM
[11]
  TGI: > 100 µM
[12]
  TGI: > 100 µM
[13]
  TGI: > 100 µM
[14]
  TGI: > 100 µM
[15]
  TGI: > 100 µM
[16]
  TGI: > 100 µM
[18]
  TGI: > 100 µM
[20]
  TGI: > 100 µM
[22]
  TGI: > 100 µM
[23]
  TGI: > 100 µM
[24]
  TGI: > 100 µM
[25]
  TGI: > 100 µM
[26]
  TGI: > 100 µM
[27]
  TGI: > 100 µM
[29]
  TGI: > 100 µM
[30]
  TGI: > 100 µM
[31]
  TGI: > 100 µM
[32]
  TGI: > 100 µM
[57]
  TGI: > 100 µM
[33]
  TGI: > 100 µM
[34]
  TGI: > 100 µM
[35]
  TGI: > 100 µM
[36]
  TGI: > 100 µM
[58]
  TGI: > 100 µM
[38]
  TGI: > 100 µM
[39]
  TGI: > 100 µM
[40]
  TGI: > 100 µM
[59]
  TGI: > 100 µM
[41]
  TGI: > 100 µM
[42]
  TGI: > 100 µM
[43]
  TGI: > 100 µM
[44]
  TGI: > 100 µM
[45]
  TGI: > 100 µM
[46]
  TGI: > 100 µM
[47]
  TGI: > 100 µM
[49]
  TGI: > 100 µM
[50]
  TGI: > 100 µM
[51]
  TGI: > 100 µM
[52]
  TGI: > 100 µM
[53]
  TGI: > 100 µM
[54]
  TGI: > 100 µM
[55]
  TGI: > 100 µM

## CCCCCCCCOCC(CO)OCCCCCCCC (centres undefined)
[1]
  TGI: 32.7 µM
[2]
  TGI: 37.7 µM
[3]
  TGI: 33.1 µM
[5]
  TGI: 37.9 µM
[56]
  TGI: 42.5 µM
[6]
  TGI: 31.8 µM
[8]
  TGI: 34.9 µM
[9]
  TGI: 33.1 µM
[10]
  TGI: 34.2 µM
[11]
  TGI: 39.7 µM
[12]
  TGI: 41.8 µM
[14]
  TGI: 29.7 µM
[15]
  TGI: 29.7 µM
[16]
  TGI: 32.4 µM
[17]
  TGI: 49.2 µM
[19]
  TGI: 33.8 µM
[20]
  TGI: 33.9 µM
[21]
  TGI: 24.5 µM
[22]
  TGI: 34.1 µM
[23]
  TGI: 37.2 µM
[24]
  TGI: 40.8 µM
[25]
  TGI: 34.2 µM
[26]
  TGI: 37.1 µM
[27]
  TGI: 33.6 µM
[28]
  TGI: 36.3 µM
[29]
  TGI: 67.1 µM
[32]
  TGI: 34.7 µM
[57]
  TGI: 43.3 µM
[33]
  TGI: 31.8 µM
[34]
  TGI: 44.9 µM
[35]
  TGI: 33.6 µM
[36]
  TGI: 32.3 µM
[37]
  TGI: 33 µM
[58]
  TGI: 32 µM
[38]
  TGI: 37.2 µM
[39]
  TGI: 33.4 µM
[40]
  TGI: 30 µM
[59]
  TGI: > 100 µM
[41]
  TGI: 42.3 µM
[42]
  TGI: 32 µM
[45]
  TGI: 42 µM
[46]
  TGI: 42.5 µM
[47]
  TGI: 34.4 µM
[48]
  TGI: > 100 µM
[50]
  TGI: 35.9 µM
[52]
  TGI: 36.6 µM
[53]
  TGI: 30.5 µM
[54]
  TGI: 37.4 µM
